Data reported in PMC8745345, “Hydroxy Pentacyclic Triterpene Acid, Kaempferol, Inhibits the Human 5-Hydroxytryptamine Type 3A Receptor Activity” (International Journal of Molecular Sciences, 2022).
Substitutions are numbered along the chain they refer to.

Columns and labels:
[1] = biological target: T1, human 5-HT3A receptor W63A mutant (Homo sapiens, UniProt P46098, W85A); assay: Two-electrode voltage clamp, I5-HT inhibition, W63A mutant; assay type: cell-based; details: −80 mV
T1 sequence (P46098 24-478 W85A): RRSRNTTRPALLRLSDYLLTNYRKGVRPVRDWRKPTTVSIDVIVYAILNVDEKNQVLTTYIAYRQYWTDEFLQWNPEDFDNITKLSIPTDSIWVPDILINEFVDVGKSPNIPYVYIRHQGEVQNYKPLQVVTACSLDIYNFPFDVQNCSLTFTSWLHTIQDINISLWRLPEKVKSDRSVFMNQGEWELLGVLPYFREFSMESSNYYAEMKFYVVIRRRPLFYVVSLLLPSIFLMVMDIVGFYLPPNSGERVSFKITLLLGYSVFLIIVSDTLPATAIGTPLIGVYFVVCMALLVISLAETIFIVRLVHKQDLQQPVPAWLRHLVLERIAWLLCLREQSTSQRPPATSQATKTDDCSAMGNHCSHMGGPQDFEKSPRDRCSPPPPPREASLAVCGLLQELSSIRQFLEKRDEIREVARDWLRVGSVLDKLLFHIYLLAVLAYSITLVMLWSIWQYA
Experimental: Xenopus oocytes were used in this study as cells for expression of human 5-HT3A receptor. All female frogs used in this experiment were obtained from the Korean Xenopus Resource Center for Research (KXRCR000001). […] Xenopus oocytes were extracted during ice incubation state and isolated as single oocytes using collagenase II (2 mg/mL) in OR2 buffer (82.5 mM NaCl, 2 mM KCl, 1 mM MgCl2, 5 mM HEPES, pH 7.4). Isolated oocytes were incubated with ND96 incubation buffer (96 mM NaCl, 2 mM KCl, 1 mM MgCl2, 1.8 mM CaCl2, 5 mM HEPES, 2.5 mM sodium pyruvate, and 50 mg/mL gentamycin, pH 7.4) at 18 °C until the experiment was performed. Human 5-HT3A receptor mRNA was injected into oocytes using a nanoinjector (Drummond Scientific, Broomall, PA, USA) with a mineral-filled 10 μL microdispenser (VWR, Piscataway, NJ, USA).
To confirm the KAE activity on the human 5-HT3A receptor, a two-electrode voltage clamp (OC-725C; Warner Instruments, Hamden, CT, USA) with a Digitata 1550A was used. For the experiment, induced-inward current was converted to digital data with pClamp 10 software (Axon Instruments, Union City, CA, USA). All experiments were performed at room temperature using an oocyte clamp equipped with Digidata. The membrane holding potential was −80 mV.

[2] = biological target: T2, human 5-HT3A receptor I144A mutant (Homo sapiens, UniProt P46098); assay: Two-electrode voltage clamp, I5-HT inhibition, I144A mutant; assay type: cell-based; details: −80 mV
T2 sequence (P46098 24-478): T1 sequence (P46098 24-478 W85A) with A62W
Experimental: Human 5-HT3A receptor cDNA was linearized using restriction enzyme XhoI. In vitro transcription was performed using an mMESSAGE mMACHINE T7 Transcription Kit (Thermo Fisher Scientific, Waltham, MA, USA). The final mRNA product was dissolved in 1X Diethyl Pyrocarbonate (RNase-free water) at a final concentration of 1 μg/μL and kept in a deep-freezer at −80 °C until used.
Xenopus oocytes were used in this study as cells for expression of human 5-HT3A receptor. All female frogs used in this experiment were obtained from the Korean Xenopus Resource Center for Research (KXRCR000001). Xenopus management followed the guideline of Chonnam National University institution guidelines (CNU IACUC-YB-2016-07, July 2016). Xenopus oocytes were extracted during ice incubation state and isolated as single oocytes using collagenase II (2 mg/mL) in OR2 buffer (82.5 mM NaCl, 2 mM KCl, 1 mM MgCl2, 5 mM HEPES, pH 7.4). […]
The voltage relationship experiment for confirming the relationship between induce-inward current and voltage, the voltage was varied from −80 mV to +60 mV using a ramp protocol. […] All recording data were analyzed using Clampfit 9.0 (Molecular Devices, San Jose, CA, USA). […]
All presented experiments were performed at least three times for scientific verification. […] Induced-inward current data were analyzed with SigmaPlot 10.0 software (Systat Software, Inc., San Jose, CA, USA). […]

O=c1c(O)c(-c2ccc(O)cc2)oc2cc(O)cc(O)c12 [KAE, kaempferol]
IC50 [1]: 33.7 ± 5.7 µM | Vmax [1]: 76.3 ± 10.7% | n (Hill coefficient) [1]: 1.3 ± 0.5 | IC50 [2]: 34.9 ± 11.2 µM | n (Hill coefficient) [2]: 1.5 ± 0.4
